Reference: paper PMC10892871 (Viruses, 2024)
Like-named read-outs stand apart in the source and are kept apart here.

Key:
wild type B.1 SARS-CoV-2 = format: cell-based
in vitro = conditions: monkey
[1] = DAA, concentration causing 10% cytotoxicity

Molecule	IC90 vs. B.1 Mean ± SD (wild type B.1 SARS-CoV-2) [µg/mL]	CC10 Mean ± SD (VERO E6 cells; mAb) [µg/mL]	CC50 Mean ± SD (VERO E6 cells; mAb) [µg/mL]	CC10 Mean ± SD (VERO E6 cells; [1]) [µM]	CC50 (in vitro) [µM]	IC50 (wild type B.1 SARS-CoV-2; read-out: IC50 vs. B.1 Mean ± SD) [µM]	IC90 (wild type B.1 SARS-CoV-2; read-out: IC90 vs. B.1 Mean ± SD) [µM]	CC50 (VERO E6 cells; read-out: CC50 Mean ± SD, DAA) [µM]
cilgavimab	1.385 ± 0.862	>0.36	>0.36	–	–	–	–	–
CCC(CC)COC(=O)[C@H](C)N[P@](=O)(OC[C@H]1O[C@@](C#N)(c2ccc3c(N)ncnn23)[C@H](O)[C@@H]1O)Oc1ccccc1 [RDV, remdesivir, reference compound]	–	–	–	4.2 ± 0.6	17.2 ± 0.2	–	–	–
O=c1nc(NO)ccn1[C@@H]1O[C@H](CO)[C@@H](O)[C@H]1O [EIDD-1931, reference compound]	–	–	–	3.1 ± 0.4	–	2.4 ± 0.4	2.5 ± 0.1	43.3 ± 6
tixagevimab	0.305 ± 0.071	>0.36	>0.36	–	–	–	–	–
bebtelovimab	0.089 ± 0.009	>0.06	>0.06	–	–	–	–	–
CC(C)(C)[C@H](NC(=O)C(F)(F)F)C(=O)N1C[C@H]2[C@@H]([C@H]1C(=O)N[C@H](C#N)C[C@@H]1CCNC1=O)C2(C)C [NRM, nirmatrelvir, reference compound]	–	–	–	2.9 ± 0.2	40.7 ± 4	–	–	–
sotrovimab	1.718 ± 0.594	>2.4	>2.4	–	–	–	–	–
